Test results published in US20260191927A1, “FORMULATION OF THERAPEUTIC AGENTS FOR IMPROVED PERMEATION” (priority 2023, published 2026).

Legend:
[1] = Critical micelle concentration (CMC) of bile salts; assay type: physicochemical; conditions: approximate values; critical micellular concentration
Source text: In some embodiments, a bile acid or salt thereof of the disclosure is characterized by a critical micelle concentration (CMC). In some embodiments, the bile acid or salt thereof aggregates and/or forms micelles at a concentration above the CMC. […] In some embodiments, the method comprises potentiometry, spectrophotometry, nuclear magnetic resonance, viscosimetry, turbidimetry, microcalorimetry, refractometry, conductimetry, cholesterol solubilization, bilirubin monoglucuronide solubilization, dye solubilization, fluorescence, capillary electrophoresis, reverse phase HPLC, freezing point depression, surface tension, and/or light scattering. In some embodiments, the CMC value is an average of at least 3-50 replicates measured by a single technique (e.g., 3-50 replicates measured by potentiometry, 3-50 replicates measured by spectrophotometry, or 3-50 replicates measured by light scattering). In some embodiments, the CMC value is an average of replicates measured by more than one technique, wherein at least 3, 4, 5, 6, 7, 8, 9, or 10 replicates are measured per technique (e.g., an average of (i) at least 3, 4, 5, 6, 7, 8, 9, or 10 replicates measured by potentiometry, (ii) at least 3, 4, 5, 6, 7, 8, 9, or 10 replicates measured by spectrophotometry, (iii) at least 3, 4, 5, 6, 7, 8, 9, or 10 replicates measured by light scattering, (iv) replicates from any pair-wise combination of (i)-(iii), or (v) replicates from a combination of (i)-(iii)).
The bile acids tested in the formulations are identified in Table 2. The bile acids selected for testing vary in the number of hydroxyl groups, stereochemistry of hydroxyl groups, and conjugation at terminal acid.

[2] = test system: porcine ex vivo intestinal tissue; assay: GI-ORIS ex vivo intestinal permeation assay
Protocol: (§1) A custom device confines larger tissue explants into individual compartments with donor and receiver chambers that face the apical and basolateral faces of the intestinal tissue, respectively. Porcine tissue was dissected as previously described from freshly harvested gastrointestinal tracts and jejunal segments were stored in calcium-free Krebs buffer at 4° C. for 16 hours prior to mounting between the receiver and donor compartments of a GI-ORIS device. Receiver compartments were filled with 150 μL of either 5% Bovine Serum Albumin (for Vancomycin) or 0.1% Ovalbumin (for Calcitonin, Insulin, Semaglutide) solutions prior to tissue mounting. […]
(§2) Vancomycin in receiver fluid samples was detected using LC-TOF. […] Quantification was performed relative to standard curves prepared in receiver fluid with no exposure to peptide.
(§3) Semaglutide in receiver fluid samples was detected using LC-QQQ. […] Quantification was performed relative to standard curves prepared in receiver fluid with no exposure to peptide.
(§4) Calcitonin and Insulin in receiver fluid samples (following a 1000× dilution in PBS) were detected using established protocols of commercial sandwich ELISA kits (Abcam, Waltham, MA, and Thermo Fisher Scientific, Waltham, MA). TMB chromogen absorbance was converted to peptide concentration relative to a standard curve prepared using provided standards in ELISA buffer. […]

[3] = test system: porcine ex vivo intestinal tissue
Protocol: as §1, §2, §3, §4

SMILES: C[C@H](CCC(=O)[O-])[C@H]1CC[C@H]2[C@@H]3[C@H](O)C[C@@H]4C[C@H](O)CC[C@]4(C)[C@H]3CC[C@]12C.[Na+] [CDCA, sodium chenodeoxycholate]
- CMC [1]: 4 mM
- CMC (mg/mL) [1]: 1.6 mg/ mL mg/mL

SMILES: C[C@H](CCC(=O)[O-])[C@H]1CC[C@H]2[C@@H]3[C@H](O)C[C@@H]4C[C@H](O)CC[C@]4(C)[C@H]3C[C@H](O)[C@]12C.[Na+] [CHA, sodium cholate]
- CMC [1]: 11 mM
- CMC (mg/mL) [1]: 4.5 mg/ mL mg/mL

SMILES: C[C@H](CCC(=O)[O-])[C@H]1CC[C@H]2[C@@H]3CC[C@@H]4C[C@H](O)CC[C@]4(C)[C@H]3C[C@H](O)[C@]12C.[Na+] [DCA, sodium deoxycholate]
- CMC [1]: 5 mM
- CMC (mg/mL) [1]: 2.0 mg/ ml mg/mL

SMILES: C[C@H](CCC(=O)NCC(=O)[O-])[C@H]1CC[C@H]2[C@@H]3[C@H](O)C[C@@H]4C[C@H](O)CC[C@]4(C)[C@H]3C[C@H](O)[C@]12C.[Na+] [GCA, sodium glycocholate]
- lowest concentration for which a maximal effect on vancomycin permeability was observed [2]: 128 mg/mL
- CMC [1]: 11 mM
- CMC (mg/mL) [1]: 5.4 mg/ mL mg/mL

SMILES: C[C@H](CCC(=O)NCC(=O)[O-])[C@H]1CC[C@H]2[C@@H]3[C@H](O)C[C@@H]4C[C@H](O)CC[C@]4(C)[C@H]3CC[C@]12C.[Na+] [GCDCA, sodium glycochenodeoxycholate]
- CMC [1]: 2 mM
- CMC (mg/mL) [1]: 0.9 mg/ mL mg/mL

SMILES: C[C@H](CCC(=O)NCC(=O)[O-])[C@H]1CC[C@H]2[C@@H]3CC[C@@H]4C[C@H](O)CC[C@]4(C)[C@H]3C[C@H](O)[C@]12C.[Na+] [GDCA, sodium glycodeoxycholate]
- CMC [1]: 2 mM
- CMC (mg/mL) [1]: 0.9 mg/ mL mg/mL

SMILES: C[C@H](CCC(=O)NCCS(=O)(=O)[O-])[C@H]1CC[C@H]2[C@@H]3[C@H](O)C[C@@H]4C[C@H](O)CC[C@]4(C)[C@H]3C[C@H](O)[C@]12C.[Na+] [STC, sodium taurocholate]
- CMC [1]: 6 mM
- CMC (mg/mL) [1]: 3.2 mg/ ml mg/mL
- enhancement in intestinal permeability of the peptides [3]: greatest enhancement in intestinal permeability

SMILES: C[C@H](CCC(=O)NCCS(=O)(=O)[O-])[C@H]1CC[C@H]2[C@@H]3[C@H](O)C[C@@H]4C[C@H](O)CC[C@]4(C)[C@H]3CC[C@]12C.[Na+] [TCDCA, sodium taurochenodeoxycholate]
- CMC [1]: 4 mM
- CMC (mg/mL) [1]: 2.1 mg/ mL mg/mL

SMILES: C[C@H](CCC(=O)NCCS(=O)(=O)[O-])[C@H]1CC[C@H]2[C@@H]3CC[C@@H]4C[C@H](O)CC[C@]4(C)[C@H]3C[C@H](O)[C@]12C.[Na+] [TDCA, sodium taurodeoxycholate]
- CMC [1]: 3 mM
- CMC (mg/mL) [1]: 1.6 mg/ mL mg/mL
